Target: T1, Mas-related G-protein coupled receptor member X2 (Homo sapiens, UniProt Q96LB1)
T1 sequence (Q96LB1 whole entry): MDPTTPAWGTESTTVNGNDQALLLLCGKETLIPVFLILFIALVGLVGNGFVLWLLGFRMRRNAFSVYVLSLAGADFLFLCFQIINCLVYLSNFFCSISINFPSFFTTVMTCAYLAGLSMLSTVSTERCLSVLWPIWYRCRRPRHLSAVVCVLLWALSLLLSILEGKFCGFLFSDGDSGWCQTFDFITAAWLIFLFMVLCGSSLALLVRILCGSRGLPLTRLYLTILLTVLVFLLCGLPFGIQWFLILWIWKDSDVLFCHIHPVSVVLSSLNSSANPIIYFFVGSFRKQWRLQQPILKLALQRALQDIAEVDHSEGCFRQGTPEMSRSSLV
Experiment: Inhibition of human MRGPRX2 expressed in CHO-K1 cells assessed as Ca2+ release incubated for 30 mins by FLIPR calcium mobilization assay
Format: functional, cell-based

Row | IC50 [pM] | SMILES
1 | 100 | NS(=O)(=O)N1CC(CNc2cc(C(F)(F)F)nc3ccc(Cl)cc23)(c2ccc3ccccc3n2)C1
2 | 100 | Cc1csc(C2(CNc3cc(C(F)(F)F)nc4ccc(Cl)cc34)CN(S(N)(=O)=O)C2)n1
3 | 100 | NS(=O)(=O)N1CCC(CNc2cc(C(F)(F)F)nc3ccc(Cl)cc23)(c2ccc(F)cn2)CC1
4 | 100 | NC(=O)N1CCC(CNc2cc(C(F)(F)F)nc3ccc(Cl)cc23)(c2ccc(F)cn2)C1 (stereo unspecified)
5 | 100 | NS(=O)(=O)N1CC(CNc2cc(C(F)(F)F)nc3ccc(Br)cc23)(c2ccc(F)cc2)C1
6 | 100 | N#Cc1cnn(C2(CNc3cc(C(F)(F)F)nc4ccc(Cl)cc34)CN(C(N)=O)C2)c1

From ChEMBL document CHEMBL6134914, “Novel Bicyclic Heterocycles as MRGPRX2 Antagonists for Treating Inflammatory Diseases” (ACS Med Chem Lett, 2025)
